Laboratory results reported in US6664040B2, “Compositions and methods for delivery of a molecule into a cell” (priority 2000, dated 2003).

Experiments:
[1] = Dynamic light scattering (DLS); format: physicochemical
Experimental: DLS was performed on a DynaPro-801 Molecular Sizing Instrument. Protein solutions (250 μl) prepared either in water or in 50% aqueous TFE at a concentration of ˜3 mg ml^−1 (sVpr) or 4 mg ml^−1 (Vpr^47-96) were injected through a 0.1-μm Whatman membrane filter. Samples were illuminated by a semiconductor laser (780 nm, 25 mW) generated by a miniature solid-state Ga1-yAlyAs-diode. The photons scattered at a 90° angle by the particles in the sample were collected by an avalanche photodiode, and the time-dependent fluctuation in intensity of the scattered light was analyzed. The translational diffusion coefficient DT was calculated with the manufacturer's software (Dynamics, version 2.1). DT was then used to calculate the degree of sample polydispersity and the hydrodynamic radius of gyration RH of the particles using the Stokes-Einstein equation: (RH=(kbT)*(6πηDT)^−1 where kb=Boltzman's constant, T=absolute temperature in Kelvin, and η=solvent viscosity). Mr was calculated on a standard curve (Mr vs. RH) supplied by the manufacturer. Ten continuous measurements were made for each sample.

HIV-1 ΔVpr = HIV-1 ΔVpr replication in macrophages (RT activity) with sVpr in the extracellular medium; format: cell-based; settings: monocyte-derived macrophages
cells [2] = assay: Transduction with and without urea denaturation (percent of cells FITC+); format: cell-based
Text: (§1) Full length Vpr was chemically synthesized and fluorescently labeled, purified by reverse phase HPLC, and added to the extracellular media of various cell cultures. Flow cytometry and epifluorescence microscopy were employed to monitor cellular uptake of sVpr. The distribution of cells within different phases of the cell cycle was studied by To-Pro-3 dye staining of DNA followed by flow cytometric analysis.

[3] = Immunization of rabbits with sVpr; format: in vivo, rabbit; settings: used to generate polyclonal and monoclonal antibodies
Text: A rabbit polyclonal antiserum, R-96, was generated by immunization with sVpr.

[4] = system: peripheral blood mononuclear cells; assay: Transduction of freshly isolated peripheral blood mononuclear cells; format: cell-based, human
Text: as §1

HIV-1 virions = assay: Incorporation of sVpr into HIV-1 virions (western blot); format: cell-based; settings: anti-Vpr and anti-p24
[5] = Solubility / absence of precipitation in aqueous solution; format: physicochemical
Jurkat T cells [6] = assay: Apoptosis induction in Jurkat T cells; format: cell-based, human; settings: by 3 days
cells [7] = assay: Trypsin-insensitive cellular uptake at 37° C. or 4° C. (geometric mean fluorescence); format: cell-based; settings: presence or absence of trypsin
Text: as §1

[8] = system: rat yolk choriocarcinoma L2-RYC cells; assay: Cellular uptake of 125I-labeled peptides; format: cell-based
Experimental: sVpr and Vpu^32-81 were iodinated with the chloramine-T method. Briefly, ˜20 μg of peptides were reacted with 5.5×10^7 Bq (1.5 mCi) Na^125I. Free iodine was removed by gel filtration through a Dowex ion-exchange column saturated with bovine serum albumin (BSA). For studies on cellular uptake, rat yolk choriocarcinoma L2-RYC cells were grown in Dulbecco's modified Eagle's medium (DMEM) with 10% (v/v) fetal bovine serum (FBS) to 75% confluence on 24-well plates. Cells were washed once with phosphate-buffered saline (PBS) and incubated in serum-free DMEM supplemented with 0.1% BSA and ^125I-labeled sVpr or, as a negative control, ^125I-labeled Vpu^32-81. Radioactive peptides were added to the medium at a specific activity of 18 kBq ml^−1. In parallel, cells were also treated with a 100-fold excess of unlabeled sVpr or Vpu^32-81. Cells were incubated for specified times at 37° C., and the distribution of intra- and extracellular radioactivity was determined as described (50). […] Radioactivity was determined in triplicate in the medium and cell layer. To correct for nonspecific binding of peptides to the cell surface, the cell layer radioactivity determined at time point 0 min (time when radiolabeled peptides were added to the medium for less than 30 sec) was subtracted as background from the radioactivity detected in the cell layer.

Jurkat T cells [9] = assay: G2 cell cycle arrest in transduced Jurkat T cells; format: cell-based, human; settings: transduced subpopulations
Text: as §1

Jurkat T cells [10] = assay: sVpr uptake by Jurkat T cells (flow cytometry); format: cell-based, human
Text: as §1

[11] = molecular target: synthetic Vpr (sVpr), full-length, sequence derived from the isolate HIV-1 NL4-3 (HIV-1 (isolate NL4-3)) (UniProt P12520); assay: SDS-PAGE without reducing agent, silver stain; dimers prevented by DTT

Substance: Vpr^47-96: peptide comprising the C-terminal domain of sVpr from positions Tyr-47 to Ser-96
- hydrodynamic radius RH of major species (monomer, 94.2% abundance) ([1]; 50% TFE): 1.25
- hydrodynamic radius RH ([1]; pure water (sVpr: 3.8 mg ml^−1, pH 3.0; components of 14% and 86% abundance)): ~3 nm

Substance: sVpr: synthetic full-length 96-amino acid HIV-1 Vpr, sequence derived from isolate HIV-1 NL4-3 (SEQ ID NO: 1), made by solid-phase peptide synthesis
- replication of HIV viruses lacking Vpr (HIV-1 ΔVpr): significantly increases
- effect of urea denaturation on transduction properties (cells [2]): does not enhance
- immunogenicity [3]: highly immunogenic
- transduction of CD4+, CD8+, CD3− lymphocytes and CD14+ monocytes ([4]; freshly isolated mixed cell populations): equivalently transduced
- transduction of freshly isolated primary human cells ([4]; nanomolar concentrations): rapidly and strongly transduces
- incorporation into newly produced HIV-1 virions (HIV-1 virions): is incorporated into newly produced HIV-1 virions
- concentration at which no precipitation was observed ([5]; aqueous solution): ≥ 4000 µg/mL
- precipitation under CD solution conditions ([5]; phosphate buffer pH 3.9 to 7.2, water, TFE): no precipitation
- apoptotic cells (Jurkat T cells [6]): approximately 90%
- hydrodynamic radius RH (average) ([1]; 50% TFE): 2.3 nm
- cell entry at 4° C. (cells [7]): enters cells at 4 °C
- level of intracellular peptide, maximum ([8]; 125I-labeled, within 2 hours, 37° C.): 8-10%
- uptake with 100-fold excess of unlabeled sVpr ([8]; 120 min): not inhibited
- G2 cell cycle arrest (Jurkat T cells [9]): induces a dose-dependent G2 cell cycle arrest
- transduction of Jurkat T cells (Jurkat T cells [10]; 7.5, 15, 30 μg/ml): dose-dependent fashion
- Cy3-positive cells (uptake) (Jurkat T cells [10]; Jurkat T cells, at 5 min): > 75%

Substance: synthetic Vpr (sVpr), full-length, sequence derived from the isolate HIV-1 NL4-3 (from UniProt P12520 1-96)
- percent of molecules as disulfide-linked dimers [11]: 10%
